SMILES strings stand for the structures. Entries after “also recorded” stand apart in the source; their conditions may differ.

In one assay the target is T1, Recombinant human SphK2 (Homo sapiens, UniProt Q9NRA0).
T1 sequence (Q9NRA0 1-654): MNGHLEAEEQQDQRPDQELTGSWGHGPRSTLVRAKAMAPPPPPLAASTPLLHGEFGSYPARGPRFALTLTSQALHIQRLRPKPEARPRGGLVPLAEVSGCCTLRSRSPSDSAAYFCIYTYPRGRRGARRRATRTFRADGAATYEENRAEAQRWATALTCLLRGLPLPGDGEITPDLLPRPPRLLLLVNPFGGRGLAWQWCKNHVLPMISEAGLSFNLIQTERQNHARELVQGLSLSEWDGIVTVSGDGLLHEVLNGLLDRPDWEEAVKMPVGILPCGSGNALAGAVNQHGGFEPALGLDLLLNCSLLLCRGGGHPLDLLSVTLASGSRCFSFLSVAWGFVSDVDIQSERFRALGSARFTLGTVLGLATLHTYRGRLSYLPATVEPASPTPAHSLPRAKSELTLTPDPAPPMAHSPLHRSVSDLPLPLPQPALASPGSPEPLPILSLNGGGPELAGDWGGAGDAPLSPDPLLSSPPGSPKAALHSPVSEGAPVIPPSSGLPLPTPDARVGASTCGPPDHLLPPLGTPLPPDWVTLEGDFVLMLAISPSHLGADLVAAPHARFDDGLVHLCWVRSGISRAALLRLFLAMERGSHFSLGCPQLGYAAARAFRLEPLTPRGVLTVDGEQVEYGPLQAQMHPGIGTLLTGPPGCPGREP
The assay is described as follows: Recombinant hSphK2 cell lysate assay. In kind it is biochemical. The conditions noted are these: for SphK2 inhibition, in words: compound 0.3 μM; for inhibition at 0.3 µM: read-out: % SphK2 Inhibition.

Assay [1] has as its target T2, Recombinant human SphK1 (Homo sapiens, UniProt Q9NYA1). The conditions noted are these: compound 1.0 μM.
For a further assay, the system named is U937 cells. As to the kind of experiment: U937 cell culture assay, S1P levels by LC-MS/MS. The conditions noted are these: 0.1 μM to 1.0 μM, 2.0 h incubation.
Assay [2] addresses T2, Recombinant human SphK1. The assay is described as follows: biochemical. Particulars: read-out: % SphK1 Inhibition.

T2 sequence (Q9NYA1 whole entry): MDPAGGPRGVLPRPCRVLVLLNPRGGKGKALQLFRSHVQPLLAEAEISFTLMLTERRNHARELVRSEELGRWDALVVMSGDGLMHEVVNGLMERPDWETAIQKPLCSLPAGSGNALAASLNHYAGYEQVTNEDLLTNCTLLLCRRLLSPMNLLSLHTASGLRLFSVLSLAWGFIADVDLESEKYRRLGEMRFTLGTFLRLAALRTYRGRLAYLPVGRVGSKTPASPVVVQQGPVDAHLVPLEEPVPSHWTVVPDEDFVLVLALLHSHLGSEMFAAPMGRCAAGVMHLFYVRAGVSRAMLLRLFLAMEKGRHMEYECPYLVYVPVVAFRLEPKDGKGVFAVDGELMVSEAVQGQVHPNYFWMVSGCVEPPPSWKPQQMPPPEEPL

For the compound `CCCCCCCOc1ccc(CN2CCC[C@@H]2CO)cc1.Cl` [12a, (R)-(1-(4-(heptyloxy)benzyl)pyrrolidin-2-yl)methanol], the “SphK2 inhibition, in words” value at Recombinant human SphK2 was “poor SphK1 and 2 inhibition”. In addition, the “SphK1 inhibition, in words” value at Recombinant human SphK1 [1] was “poor SphK1 and 2 inhibition”.

As to `Cl.OC[C@H]1CCCN1Cc1ccc(OCc2ccc(C(F)(F)F)cc2)cc1` [12e, (R)-(1-(4-((4-(trifluoromethyl)benzyl)oxy)benzyl)pyrrolidin-2-yl)methanol], the “SphK2 inhibition, in words” value on Recombinant human SphK2 is recorded as “weak SphK inhibition”. The “SphK1 inhibition, in words” value at Recombinant human SphK1 [1] is on record as “weak SphK inhibition”.

As to `Cl.OC[C@H]1CCCN1Cc1ccc(Oc2ccccc2)cc1` [18a, (R)-(1-(4-phenoxybenzyl)pyrrolidin-2-yl)methanol], the “SphK2 inhibition, in words” value at Recombinant human SphK2 is “poor SphK1 and 2 inhibition”. Besides, the “SphK1 inhibition, in words” value at Recombinant human SphK1 [1] is “poor SphK1 and 2 inhibition”.

For the compound `CC(C)(C)c1cccc(Oc2ccc(CN3CCC[C@@H]3CO)cc2)c1.Cl` [18b, (R)-(1-(4-(3-(tert-butyl)phenoxy)benzyl)pyrrolidin-2-yl)methanol], the “SphK2 inhibition, in words” value at Recombinant human SphK2 is on record as “minimal enzyme inhibition”. Besides, the “SphK1 inhibition, in words” value at Recombinant human SphK1 [1] is recorded as “minimal enzyme inhibition”.

As to `Cl.OC[C@H]1CCCN1Cc1ccc(Oc2cccc(-c3ccccc3)c2)cc1` [18d, (R)-(1-(4-([1,1′-biphenyl]-3-yloxy)benzyl)pyrrolidin-2-yl)methanol], the “SphK2 inhibition, in words” value at Recombinant human SphK2 is reported as “minimal enzyme inhibition”. Further, at Recombinant human SphK1 [1], the “SphK1 inhibition, in words” value is listed as “minimal enzyme inhibition”.

Turning to `CCCCCCCCCCc1ccc(CN2CCC[C@@H]2CO)cc1.Cl` [22b, (R)-(1-(4-decylbenzyl)pyrrolidin-2-yl)methanol], on Recombinant human SphK2, the “SphK2 inhibition, in words” value is “strong inhibitory activity”.

For the compound `CCCCCCCCCCCCc1ccc(CN2CCC[C@@H]2CO)cc1.Cl` [22d, (R)-(1-(4-dodecylbenzyl)pyrrolidin-2-yl)methanol], the “SphK2 inhibition, in words” value on Recombinant human SphK2 is reported as “strong inhibitory activity”. Further, the “S1P levels in U937 cells” value in the assay with U937 cells is on record as “decreased S1P levels; also recorded: concentration-dependent reduction of S1P levels”.

Usually inhibition stands for the change of the read-out against control, counted positive when it falls. For the compound `Cc1ccc(CCc2ccc(CN3CCC[C@@H]3CO)cc2)cc1` [22f, (R)-(1-(4-(4-methylphenethyl)benzyl)pyrrolidin-2-yl)methanol], on Recombinant human SphK2, the inhibition at 0.3 µM stood at 3 ± 5%. For the same compound, the inhibition at 1 µM on Recombinant human SphK1 [2] is 4 ± 4%.

Regarding `COc1ccc(CCc2ccc(CN3CCC[C@@H]3CO)cc2)cc1` [22g, (R)-(1-(4-(4-methoxyphenethyl)benzyl)pyrrolidin-2-yl)methanol], the inhibition at 0.3 µM on Recombinant human SphK2 came to 2 ± 2%. The inhibition at 1 µM on Recombinant human SphK1 [2] was determined as 8 ± 7%.

For the compound `CCCCCCCCCCCc1ccc(CN2CCC[C@@H]2COC(C)=O)cc1` [22h, (R)-(1-(4-undecylbenzyl)pyrrolidin-2-yl)methyl acetate], at Recombinant human SphK2, the inhibition at 0.3 µM worked out at 26 ± 6%. Also, the inhibition at 1 µM at Recombinant human SphK1 [2] turned out to be 47 ± 6%.

`Cc1cc(/C=C/c2ccc(C(C)(C)C)cc2)ccc1CN1CCC[C@@H]1CO` [25a, (R,E)-(1-(4-(4-(tert-butyl)styryl)-2-methylbenzyl)pyrrolidin-2-yl)methanol]: the inhibition at 0.3 µM at Recombinant human SphK2 is 0%. Besides, the inhibition at 1 µM at Recombinant human SphK1 [2] was determined as 23 ± 3%.

Turning to `OC[C@H]1CCCN1Cc1ccc(/C=C/c2cccc(C(F)(F)F)c2)cc1` [25b, (R,E)-(1-(4-(3-(trifluoromethyl)styryl)benzyl)pyrrolidin-2-yl) methanol], the inhibition at 0.3 µM at Recombinant human SphK2 stood at 13 ± 5%. The inhibition at 1 µM on Recombinant human SphK1 [2] turned out to be 45 ± 1%.

As for `CCCc1ccc(CCc2ccc(CN3CCC[C@@H]3CO)cc2)cc1` [29a, (R)-(1-(4-(4-propylphenethyl)benzyl)pyrrolidin-2-yl)methanol], on Recombinant human SphK2, the inhibition at 0.3 µM stood at 3 ± 4%. Further, on Recombinant human SphK1 [2], the inhibition at 1 µM is 29 ± 8%.

Take `CCCCc1ccc(CCc2ccc(CN3CCC[C@@H]3CO)cc2)cc1` [29b, (R)-(1-(4-(4-butylphenethyl)benzyl)pyrrolidin-2-yl)methanol]: on Recombinant human SphK1 [2], the inhibition at 1 µM stood at 31 ± 4%.

With `CCCCCc1ccc(CCc2ccc(CN3CCC[C@@H]3CO)cc2)cc1` [29c, (R)-(1-(4-(4-pentylphenethyl)benzyl)pyrrolidin-2-yl)methanol], the inhibition at 0.3 µM at Recombinant human SphK2 was 15 ± 5%. Also, the inhibition at 1 µM on Recombinant human SphK1 [2] stood at 36 ± 3%.

Source of the values: PMC8862572 (Bioorganic & medicinal chemistry, 2020).
